Measurements taken from patent EP2583662A1, “Composition comprising a meroterpen to manage oily skin with tendency to develop acne” (priority 2011, dated 2013).

Legend:
[1] = tested on: Propionibacterium acnes CIP A179; assay: Minimal inhibitory concentration (CMI) in solid medium against Propionibacterium acnes; format: cell-based; settings: single active; Wilkins-Chalgren agar, 18h at 37°C, anaerobic
Method: La détermination de la CMI des actifs à évaluer vis-à-vis de Propionibacterium acnes consiste, dans un premier temps, à préparer une gamme comportant neuf dilutions des actifs à tester. Chaque dilution est ensuite déposée en boîte de Pétri puis recouverte de gélose Wilkins-Chalgren. Après homogénéisation puis solidification, chacune des boîtes est inoculée avec une suspension calibrée (10^7 UFC/mL) de P acnes (dépôt par strie), puis les boîtes sont incubées 18h à 37°C en anaérobiose. La souche utilisée est le Propionibacterium acnes CIP A179 (origine = glande sébacée (1946), source CRBIP, Institut Pasteur, Paris).
La préparation des géloses s'effectue à J1 en ajoutant 2 mL d'eau osmosée stérile dans une boîte de Pétri (témoin négatif) ou 2 ml de chaque dilution des gammes d'actifs 10 fois concentré et 18 mL de milieu gélosé. Après solidification à température ambiante, les boites sont séchées 30 min à 37°C puis ensemencées avec la suspension bactérienne calibrée (10^7 UFC/mL) à l'aide d'une ose calibrée de 10 µL permettant de réaliser un dépôt correspondant à environ 10^4 UFC).
La lecture des boites est effectuée après 18 heures de culture à 37°C permettant de déterminer la CMI correspondant à la plus faible concentration d'actif(s) qui inhibe toute culture visible de P acnes. La présence de 1 à 3 colonies n'est pas prise en considération.
Les produits évalués sont le S (Sytenol®A, Sytheon), Z (Zinc gluconate, Azelis), seuls et les associations S + M (mannitol, IMCD/SPCI) + G (extrait glycolique de Ginkgo biloba, Greentech) et S + M + G + Z.
Le Sytenol®A qui présente un caractère lipophile est dilué dans le DMSO (solution mère à 10%) avant d'être redilué dans l'eau osmosée. Le zinc, le mannitol et l'extrait de Ginkgo sont directement dilués dans l'eau osmosée.
Les essais ont également compris des contrôles en présence du solvant DMSO ayant servi à la solubilisation de S dans l'eau.

[2] = Protection of squalene against H2O2-induced oxidation (GC-MS assay of remaining squalene); settings: for Indice de protection (%): squalene + H2O2 for 1 hour
Method: Le but de l'étude est d'évaluer les effets d'un méroterpène, en l'occurrence le Sytenol®A, sur l'oxydation du squalène induite par du peroxyde d'hydrogène (H2O2).
Le squalène (Sigma, St Quentin Fallavier) est mis en contact avec une quantité définie de peroxyde d'hydrogène pendant 1 heure pour induire son oxydation, en présence ou non du Sytenol®A à 0.1%, 0.25% ou 0.5% (P/V). Un contrôle est réalisé avec un anti-oxydant lipophile de référence, la vitamine E, testée à 0,16% (3,8 mM), correspondant à une concentration équimolaire de Sytenol®A à 0,1%.
A l'issue de l'oxydation, une étape d'extraction est réalisée, puis les échantillons sont analysés par chromatographie en phase gazeuse couplée à une analyse par spectrométrie de masse (GC-MS). Le squalène est dosé grâce à une gamme étalon (10 µg/ml à 2500 µg/ml). La quantité de squalène oxydée est déduite des dosages du squalène. Plus les quantités de squalène dosées sont importantes, moins il a été oxydé et inversement.

O=C(OOC(=O)c1ccccc1)c1ccccc1 [Peroxyde de Benzoyle, peroxyde de benzoyle]
CMI [1]: 0.008%

C=C[C@@](C)(/C=C/c1ccc(O)cc1)CCC=C(C)C [Sytenol®A, bakuchiol]
fois plus efficace que la vitamine E en termes de protection de l'oxydation du squalène ([2]; equimolar concentration of 3,8 mM): 2 fois
Indice de protection (%) ([2]; tested at 0.1% (3.9mM)): 30.02%
Indice de protection (%) ([2]; tested at 0.25% (9.75 mM)): 37.12%

Zinc gluconate
CMI [1]: 0.12%

vitamine E
Indice de protection (%) ([2]; tested at 0.16% (3.8mM)): 15.17%
